# Reference: PMC3608651, “A Broad Profile of Co-Dominant Epitopes Shapes the Peripheral Mycobacterium tuberculosis Specific CD8+ T-Cell Immune Response in South African Patients with Active Tuberculosis” (PLoS ONE, 2013)
# Assays:
# Type in all cases: binding
# HLA-B*58:01 [1] = biological target: T1, HLA-B*58:01 (Homo sapiens, UniProt P01889, A329T/C349S/D201E/D98Y/E176V/E187L/E204Q/E69T/G107R/I218V/I90N/K202T/L105A/L119I/N104I/N87E/Q89R/Q94S/R106L/R155S/R180L/R86G/S101N/S121R/S35A/S48A/T118I/V127L/V306I/V36M/Y140S/Y91M); settings: time points 0-8 h
# HLA-A*30:01 [2] = biological target: T2, HLA-A*30:01 (Homo sapiens, UniProt P04439, D140H/D185E/E176W/F33S/G80R/H175R/K168Q/R138E/R41S); settings: percent relative the binding of positive control peptide […]; duplicated experiments; positive binder >40%
# HLA-A*02:01 [3] = biological target: T3, HLA-A*02:01 (Homo sapiens, UniProt P04439, D140Y/D185E/D98H/E176V/E277Q/G131W/G231S/I119V/I121R/I166T/I218V/L300P/L318F/N151K/N90K/P208A/P217A/Q86G/Q94H/R138H/R169H/T345S); settings: […]; peptide quantity for 50% binding saturation
# HLA-B*58:01 [4] = biological target: T1, HLA-B*58:01
# HLA-A*68:01 [5] = biological target: T4, HLA-A*68:01 (Homo sapiens, UniProt P04439, A269V/D185E/E176V/E277Q/E87N/F33Y/G231S/I121M/I166T/I218V/L180W/L300P/L318F/N151K/P208A/P217A/Q86R/R169H/T345S); settings: percent relative the binding of positive control peptide […]; duplicated experiments; positive binder >40%
# HLA-A*02:01 [6] = biological target: T3, HLA-A*02:01; settings: percent relative the binding of positive control peptide […]; plate-bound monomer 0.5 µg/ml; duplicated experiments; positive binder >40%
# HLA-A*30:01 [7] = biological target: T2, HLA-A*30:01; assay: off-rate assay (t1/2); settings: time points 0-8 h
# HLA-A*68:01 [8] = biological target: T4, HLA-A*68:01; settings: time points 0-8 h
# HLA-A*02:01 [9] = biological target: T3, HLA-A*02:01; settings: time points 0-8 h; time when 50% of peptide has dissociated
# HLA-A*68:01 [10] = biological target: T4, HLA-A*68:01
# HLA-C*07:01 [11] = biological target: T5, HLA-C*07:01 (Homo sapiens, UniProt P10321, K90N/S123Y); settings: percent relative the binding of positive control peptide […]; duplicated experiments; positive binder >40%
# HLA-B*58:01 [12] = biological target: T1, HLA-B*58:01; settings: percent relative the binding of positive control peptide […]; duplicated experiments; positive binder >40%
# HLA-A*30:01 [13] = biological target: T2, HLA-A*30:01; assay: affinity assay (ED50); settings: peptide titrated 10−4 to 10−9 M
# HLA-A*30:02 [14] = biological target: T6, HLA-A*30:02 (Homo sapiens, UniProt P04439, D101N/D140H/D185E/E176R/F33S/G80R/H175R/K168Q/Q94H/R138E/R41S/V100E); settings: percent relative the binding of positive control peptide […]; duplicated experiments; positive binder >40%
# HLA-B*07:02 [15] = biological target: T7, HLA-B*07:02 (Homo sapiens, UniProt P01889); settings: percent relative the binding of positive control peptide […]; duplicated experiments; positive binder >40%
# HLA-A*24:02 [16] = biological target: T8, HLA-A*24:02 (Homo sapiens, UniProt P04439, D101N/D140Y/D185E/E176V/E190D/F33S/G103R/G107R/I119L/I121M/I306V/K335N/L105A/L180Q/L300P/N151K/N90K/Q86E/Q94H/R106L/R138H/R89G/T104I/T345S/V100E/W191G/Y123F); settings: percent relative the binding of positive control peptide […]; duplicated experiments; positive binder >40%
# HLA-A*30:02 [17] = biological target: T6, HLA-A*30:02
# HLA-A*24:02 [18] = biological target: T8, HLA-A*24:02
# HLA-A*30:02 [19] = biological target: T6, HLA-A*30:02; settings: time points 0-8 h
# HLA-A*24:02 [20] = biological target: T8, HLA-A*24:02; settings: time points 0-8 h
# HLA-B*07:02 [21] = biological target: T7, HLA-B*07:02; assay: off-rate assay (t1/2); settings: time points 0-8 h
# HLA-C*07:01 [22] = biological target: T5, HLA-C*07:01; assay: off-rate assay (t1/2); settings: time points 0-8 h
# HLA-B*07:02 [23] = biological target: T7, HLA-B*07:02; assay: affinity assay (ED50); settings: peptide titrated 10−4 to 10−9 M
# HLA-C*07:01 [24] = biological target: T5, HLA-C*07:01; assay: affinity assay (ED50)
Substance,O-rate B*58:01 (t1/2) (HLA-B*58:01 [1]),Bind A*30:01 (HLA-A*30:01 [2]),Aff A*02:01 (ED50) (HLA-A*02:01 [3]),Aff B*58:01 (ED50) (HLA-B*58:01 [4]),Bind A*68:01 (HLA-A*68:01 [5]),Bind A*02:01 (HLA-A*02:01 [6]),O-rate A*30:01 (t1/2) (HLA-A*30:01 [7]),O-rate A*68:01 (t1/2) (HLA-A*68:01 [8]),O-rate A*02:01 (t1/2) (HLA-A*02:01 [9]),Aff A*68:01 (ED50) (HLA-A*68:01 [10]),Bind C*07:01 (HLA-C*07:01 [11]),Bind B*58:01 (HLA-B*58:01 [12]),Aff A*30:01 (ED50) (HLA-A*30:01 [13]),Bind A*30:02 (HLA-A*30:02 [14]),Bind B*07:02 (HLA-B*07:02 [15]),Bind A*24:02 (HLA-A*24:02 [16]),Aff A*30:02 (ED50) (HLA-A*30:02 [17]),Aff A*24:02 (ED50) (HLA-A*24:02 [18]),O-rate A*30:02 (t1/2) (HLA-A*30:02 [19]),O-rate A*24:02 (t1/2) (HLA-A*24:02 [20]),further results
AAYHPQQFI,48 min,83%,6E -07 M,4E -08 M,47%,56%,30 min,228 min,72 min,3E -05 M,0%,64%,2E -07 M,34%,9%,54%,,,,,
AMKGDLQSS,,129%,2E -07 M,,0%,89%,30 min,,102 min,,23%,0%,2E -06 M,47%,9%,42%,1E -07 M,400 µM,120 min,18 min,
NFVRSSNLK,,101%,,,84%,3%,24 min,12 min,,3E -06 M,0%,10%,9E -07 M,0%,0%,0%,,,,,
KLVANNT RL,,60%,,,18%,81%,42 min,,,,13%,40%,2E -08 M,167%,43%,73%,1E -07 M,,132 min,,
MGRDIKVQF,18 min,0%,,3e-07 M,10%,0%,,,,,68%,61%,,61%,41%,25%,7e-08 M,,18 min,,O-rate B*07:02 (t1/2) (HLA-B*07:02 [21]): 18 min; O-rate C*07:01 (t1/2) (HLA-C*07:01 [22]): 12 min; Aff B*07:02 (ED50) (HLA-B*07:02 [23]): 0.8 µM; Aff C*07:01 (ED50) (HLA-C*07:01 [24]): 0.08 µM
YAGSLSALL,42 min,0%,,3E -08 M,13%,66%,,,,,19%,58%,,64%,41%,81%,2e-07 M,1 µM,54 min,72 min,O-rate B*07:02 (t1/2) (HLA-B*07:02 [21]): 36 min; Aff B*07:02 (ED50) (HLA-B*07:02 [23]): 10 µM
